In this test the test system is 521955-158-R6-J3-PDC complex spheroid growth, % test/control. Kind of test: Anticancer human tumor 521955-158-R6-J3-PDC patient-derived pancreatic carcinoma cell line growth inhibition [Asc]. Conditions: for viability, T/C: stronger effect = lower value. On the procedure:
Multicellular complex tumor spheroid response to apoptosis pathway targeting inhibitors Alrizomadlin, Pelcitoclax, and Dasminapant in combination with a variety of drugs and investigational agents in selected tumor cell lines
The MDM2 inhibitor alrizomadlin, the Bcl-2/Bcl-xL inhibitor pelcitoclax, and the IAPs inhibitor dasminapant were evaluated both individually and in combination with standard of care and investigational anticancer small molecules within a complex spheroid model of solid tumors. . Complex spheroids include a stromal component modeled by human endothelial cells (HUVEC) and fibroblasts modeled by human mesenchymal stem cells (MSCs). The concentration ranges selected for each drug and investigational agent were based upon clinically achievable concentrations if the clinical Cmax of the agent was known.
Compounds. The drugs and investigational agents: alrizomadlin (APG-115; NSC831270), pelcitoclax (APG-1252; NSC835773), dasminapant (APG-1387;NSC834197), TAK-243 (NSC785004), copanlisib (NSC809693), olaparib (NSC753686), talazoparib (NSC767125), cobimetinib (NSC 768068), eltanexor (KPT-8602, NSC 794443), abemaciclib (NSC 768073), sotorasib (NSC818433), adagrasib (NSC 831453), MRTX-1133 (NSC 836407), Iadademestat (ORY1001, NSC 806812), and RMC-4630 (NSC839698), were obtained from the NCI Developmental Therapeutics Program Chemical Repository. The FDA-approved anticancer drug set is available from the Developmental Therapeutics Program at https://dtp.cancer.gov/organization/dscb/obtaining/available plates.htm. […] The stock solutions were prepared in dimethyl sulfoxide (DMSO, Sigma-Aldrich, St. Louis, MO, cat. D2650) at 800-fold the tested concentration and stored at -70 degrees C prior to their use. All drugs and investigational agents were tested over a range starting from a high concentration at or near the clinical Cmax and decreasing in half-log increments. If the clinical Cmax for an agent had not been determined, the highest concentration tested was 10 microM.
The patient-derived cancer (PDC) cell lines include five colon adenocarcinomas: 186277-243-T-J2-PDC, 616215-338-R-J1-PDC, 439559-082-T-J2-PDC, 463943-066-T-J2-PDC, and 519858-162-T-J1-PDC; three pancreatic carcinomas: 323965-272-R-J2-PDC, 521955-158-R6-J3-PDC, and 521955-158-R2-J5-PDC; two uterine sarcomas: 327498-152-R-J2-PDC and 993429-296-R-J1-PDC; two rhabdomyosarcomas: 755483-174-R-J1-PDC and 772245-204-R-J1-PDC; two soft tissue sarcomas: 126254-015-R-J1-PDC and 494315-158-R-J1-PDC; two malignant fibrous histiocytomas: 317291-083-R-J1-PDC and 596521-263-R-J1-PDC; two breast carcinomas: 171881-019-R-J1-PDC and 885512-296-R-J2-PDC; and one ovarian carcinoma: 6556581-035-R-J-PDC were obtained from the NCI PDMR, (https://pdmr.cancer.gov). The established cell lines HSSY-2 synovial sarcoma (RRID:CVCL 8719), SYO-1 synovial sarcoma (RRID:CVCL_7146), MPNST malignant peripheral neural sheath tumor were obtained from the Sloan Kettering Institute. The following established cell lines were purchased from the American Type Culture Collection (ATCC, Manassas, VA), Sor the received from the NCI repository:, PANC-1 pancreatic carcinoma (CRL-1469, RRID:CVCL_0480), OVCAR-5 ovarian carcinoma (RRID:CVCL_1628), OVCAR-8 ovarian carcinoma (RRID:CVCL_1629), , MCF-7 breast carcinoma (CRL-12584, RRID:CVCL_0031), MDA-MB-231 breast carcinoma (CRL-12532, RRID:CVCL_0062), NCI-H1876 small cell lung carcinoma (CRL-5902, RRID:CVCL_1503), NCI-H510A small cell lung carcinoma (HTB-184, RRID:CVCL_1565), NCI-H1417 (CRL-5869, RRID:CVCL_1469), and NCI-H196 small cell lung carcinoma (CRL-5823, RRID:CVCL_1509). Dr. Peter Houghton (Greehey Children's Cancer Research Institute, University of Texas Health Science Center, San Antonio, TX) provided Rh-18 rhabdomyosarcoma (RRID:CVCL_1659). Pooled donor human umbilical vein endothelial cells (HUVEC, Lonza, cat. CC-2519) and human mesenchymal stem cells (hMSC, Lonza, cat. PT-2501) were purchased from Lonza (Walkersville, MD).
Cell Culture. […]

[1] abbreviates: compound alone, run of 11/07/2022.

The viability, T/C is the result in the treated group divided by that in the control group, in per cent. As a reminder, the IC50 is the concentration that gives 50% inhibition.

Where “and” joins values, the source holds several entries; their conditions need not be identical. Equal values may be shown once.
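Further: spheroids exposed to compounds for 7 days.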
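Wherever viability, T/C is given: 100% = DMSO vehicle control wells.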

As for `C#Cc1c(F)ccc2cc(O)cc(-c3ncc4c(N5CC6CCC(C5)N6)nc(OCC56CCCN5CC(F)C6)nc4c3F)c12` (centres undefined), the viability, T/C by setting is: (compound 0.0316 µM) 60.7% and 66.5% and 60.8%; (compound 0.1 µM) 52.9% and 52% and 53.5%; (compound 0.316 µM) 46% and 58.3% and 47.4%; (compound 1 µM) 48% and 45.1% and 47%; (compound 3.16 µM) 33.9% and 35.5% and 44.9%; (compound 10 µM) 18.6% and 32.2%. For the same compound, under “curve of compound”, the IC50 was 0.342 µM and 0.452 µM and 0.387 µM.

Take `C=C(F)C(=O)N1CCN(c2nc(OCC3CCCN3C)nc3c2CCN(c2cccc4cccc(Cl)c24)C3)CC1CC#N` (centres undefined): the viability, T/C is, setting by setting: (compound 0.0316 µM) 102% (2×) and 93.7%; (compound 0.1 µM) 93.2% and 115% and 87.3%; (compound 0.316 µM) 78.6% and 89.8% and 90.9%; (compound 1 µM) 89.2% and 87.9% and 95.7%; (compound 3.16 µM) 83.7% and 86.3% and 93.3%; (compound 10 µM) 0.33% and 0.31% and 0.93%. Besides, the IC50 (curve of compound) is 5.04 µM and 4.98 µM and 5.38 µM.

In the case of `C=CC(=O)N1CCN(c2nc(=O)n(-c3c(C)ccnc3C(C)C)c3nc(-c4c(O)cccc4F)c(F)cc23)C(C)C1` (centres undefined), the viability, T/C is, setting by setting: (compound 0.0316 µM) 104% and 94.7% and 96.5%; (compound 0.1 µM) 105% and 107% and 89.4%; (compound 0.316 µM) 95.1% and 92% and 95.3%; (compound 1 µM) 111% and 100% and 122%; (compound 3.16 µM) 112% and 125% and 121%; (compound 10 µM) 93.7% and 124% and 118%. The IC50 (curve of compound) was above 10 µM.

Consider `CCN1C(C(=O)NC23CCC(C(=O)O)(CC2)CC3)C(c2cccc(Cl)c2F)C2(C(=O)Nc3cc(Cl)ccc32)C12CCCCC2` (centres undefined), for which, for the setting “compound 0.3 µM”, the viability, T/C was 109% [middle of 9 runs]. Further, the IC50 was above 3 µM under setting [1] and above 3 µM (curve of compound).

As for `CCN1CCN(Cc2ccc(Nc3ncc(F)c(-c4cc(F)c5nc(C)n(C(C)C)c5c4)n3)nc2)CC1`, the viability, T/C runs as follows: (compound 0.00316 µM) 88.9% and 113% and 94.9%; (compound 0.01 µM) 105% and 115% and 102%; (compound 0.0316 µM) 77.9% and 87.5% and 87.9%; (compound 0.1 µM) 86.7% and 105% and 94.8%; (compound 0.316 µM) 85.5% and 74.2% and 83.4%; (compound 1 µM) 87.4% and 96.5% and 91.6%. For the same compound, the IC50 (curve of compound) is above 1 µM.

For the compound `CNC(C)C(=O)NC1CN(S(=O)(=O)c2cccc(S(=O)(=O)N3CCC4CCC(C(=O)NC(c5ccccc5)c5ccccc5)N4C(=O)C(NC(=O)C(C)NC)C3)c2)CCC2CCC(C(=O)NC(c3ccccc3)c3ccccc3)N2C1=O` (centres undefined), the IC50 by setting is: (compound alone, run of 11/15/2022) above 1 µM; (curve of compound) above 1 µM.

For the compound `COc1c(OCCCN2CCOCC2)ccc2c3n(c(=NC(=O)c4cnc(N)nc4)nc12)CCN3`, the viability, T/C by setting is: (compound 0.00316 µM) 83.2% and 98.8% and 91.5%; (compound 0.01 µM) 97.2% and 78.8% and 72.1%; (compound 0.0316 µM) 76.5% and 75.6% and 63.8%; (compound 0.1 µM) 62.5% and 81.4% and 64.8%; (compound 0.316 µM) 41.9% and 61.3% and 48.6%; (compound 1 µM) 34.7% and 40% and 32.8%. The IC50 (curve of compound) is 0.592 µM and 0.275 µM and 0.177 µM.

For the compound `Cc1c(S(C)(=O)=O)c(-c2cc(F)cc(N3CCN(c4ccc(NS(=O)(=O)c5ccc(NC(CCN6CCC(C(=O)OCCCP(=O)(O)O)CC6)CSc6ccccc6)c(S(=O)(=O)C(F)(F)F)c5)cc4)CC3)c2)c(-c2ccc(Cl)cc2)n1C(C)C` (centres undefined), the viability, T/C by setting is: (compound 0.0316 µM) 77.2% [middle of 7 runs]; (compound 0.1 µM) 71.5% [middle of 7 runs]; (compound 0.316 µM) 54% [middle of 7 runs]; (compound 1 µM) 37.2% [middle of 7 runs]; (compound 3.16 µM) 23.6% [middle of 7 runs]; (compound 10 µM) 18.2% [middle of 7 runs]. Moreover, the IC50 under setting [1] is 412 nM [middle of 7 runs].

`Cc1nc(N2CCC3(CC2)COC(C)C3N)c(CO)nc1Sc1ccnc(N)c1Cl` (centres undefined): the viability, T/C reads like this: (compound 0.00949 µM) 89.6% and 113% and 112%; (compound 0.03 µM) 90.4% and 106% and 101%; (compound 0.0949 µM) 83.9% and 93.1% and 97%; (compound 0.3 µM) 84.7% and 97.1% and 94.5%; (compound 0.949 µM) 72.8% and 94.4% and 71.6%; (compound 3 µM) 57.9% and 89.5% and 90.1%. Besides, the IC50 (curve of compound) was above 3 µM.

With `Cn1ncnc1[C@H]1c2n[nH]c(=O)c3cc(F)cc(c23)N[C@@H]1c1ccc(F)cc1`, the viability, T/C is, setting by setting: (compound 0.000316 µM) 100% and 86% and 85.9%; (compound 0.001 µM) 117% and 105% and 93.7%; (compound 0.00316 µM) 108% and 97.1% and 83.8%; (compound 0.01 µM) 106% and 116% and 114%; (compound 0.0316 µM) 97.9% and 96.4% and 84.3%; (compound 0.1 µM) 95.5% and 85.7% and 96.4%. In addition, for the setting “curve of compound”, the IC50 was above 0.1 µM.

For the compound `NC(=O)C(=Cn1cnc(-c2cc(C(F)(F)F)cc(C(F)(F)F)c2)n1)c1cncnc1`, the viability, T/C reads like this: (compound 0.000949 µM) 105% and 126% and 111%; (compound 0.003 µM) 96.3% and 105% and 115%; (compound 0.00949 µM) 84.8% and 93.3% and 105%; (compound 0.03 µM) 98% and 98.2% and 115%; (compound 0.0949 µM) 124% and 107% and 73.9%; (compound 0.3 µM) 121% and 93.9% and 62.7%. Also, the IC50 (curve of compound) was above 0.3 µM.

As for `NC1CCC(NC2CC2c2ccccc2)CC1` (centres undefined), the viability, T/C by setting is: (compound 0.000316 µM) 104% and 94% and 98.2%; (compound 0.001 µM) 124% and 120% and 99.5%; (compound 0.00316 µM) 136% and 105% and 97.8%; (compound 0.01 µM) 128% and 117% and 109%; (compound 0.0316 µM) 128% and 103% and 93.2%; (compound 0.1 µM) 117% and 99.7% and 89.2%. Further, the half-maximal inhibitory concentration (IC50) (curve of compound) was above 0.1 µM.

Consider `O=C(c1cc(Cc2n[nH]c(=O)c3ccccc23)ccc1F)N1CCN(C(=O)C2CC2)CC1`, for which the viability, T/C is 103% and 91.4% and 91.6% (compound 0.0316 µM); 92.6% and 93.9% and 101% (compound 0.1 µM); 100% and 101% and 87.3% (compound 0.316 µM); 108% and 101% and 91.8% (compound 1 µM); 98.8% and 94.8% and 124% (compound 3.16 µM); 98.6% and 78.8% and 86.5% (compound 10 µM). The IC50 (curve of compound) is above 10 µM.

Take `O=C(c1ccc(F)c(F)c1Nc1ccc(I)cc1F)N1CC(O)([C@@H]2CCCCN2)C1`: the viability, T/C reads like this: (compound 0.00316 µM) 87.6% and 110% and 88.3%; (compound 0.01 µM) 116% and 111% and 90.7%; (compound 0.0316 µM) 120% and 125% and 79.5%; (compound 0.1 µM) 105% and 98.2% and 79%; (compound 0.316 µM) 67.9% and 66.9% and 54%; (compound 1 µM) 41% and 41.8% and 29.7%. In addition, the IC50 (curve of compound) was 0.681 µM and 0.684 µM and 0.396 µM.

The values are drawn from PubChem BioAssay AID1963451 (Molecular Pharmacology Branch, DTP, NCI, 2024).
